In patent publication US20070149446A1, “Tamandarin analogs and fragments thereof and methods of making and using” (The Trustees of the University of Pennsylvania Center for …, priority 2003, published 2007):
Starred links: 1 amine or outer side, 2 acyl side, 3 side chain; linkers in the order of their positions; H or OH if unused. Positions of bridges follow the written chain, without caps; N, C: chain ends. Non-standard residues stand in square brackets, D forms with d. Residues, ends and D or L forms follow the SMILES beside them. Hexanoyl(3S-OH,4R-NH2,5-Me) = CC(C)[C@@H](N[*:1])[C@@H](O)CC(=O)[*:2]; NMeF = CN[C@@H](Cc1ccccc1)C(=O)O; dNMeL = CN[C@H](CC(C)C)C(=O)O; Hiv = CC(C)[C@H](O)C(=O)O; Lac = C[C@H](O)C(=O)O

Legend:
HELA = test: SRB colorimetric cell growth inhibition assay, HELA; details: SRB, 48 hours exposure
Procedure: (§1) This form of assay employs 96 well cell culture microplates of […] diameter (Faircloth, 1988; Mosmann, 1983). Most of the cell lines are obtained from American Type Culture Collection (ATCC) derived from different human cancer types.
(§2) Cells are maintained in RPMI 1640 10% FBS, supplemented with 0.1 g/l penicillin and 0.1 g/l streptomycin sulfate and then incubated at 37° C., 5% CO2 and 98% humidity. For the experiments, cells were harvested from subconfluent cultures using trypsin and resuspended in fresh medium before plating.
(§3) Cells are seeded in 96 well microtiter plates, at 5×10^3 cells per well in aliquots of 195 μl medium, and they are allowed to attach to the plate surface by growing in drug free medium for 18 hours. Afterward, samples are added in aliquots of 5 μl in a ranging from 10 to 10-8 μg/ml, dissolved in DMSO/EtOH/PBS (0.5:0.5:99). After 48 hours exposure, the antitumor effect are measured by the SRB methodology: cells are fixed by adding 50 μl of cold 50% (wt/vol) trichloroacetic acid (TCA) and incubated for 60 minutes at 4° C.
(§4) Plates are washed with deionised water and dried. One hundred μl of SRB solution (0.4% wt/vol in 1% acetic acid) is added to each microtiter well and incubated for 10 minutes at room temperature. Unbound SRB is removed by washing with 1% acetic acid. Plates are air dried and bound stain is solubilized with Tris buffer. Optical densities are read on a automated spectrophotometric plate reader at a single wavelength of 490 nm.
(§5) The values for mean+/−SD of data from triplicate wells are calculated.
(§6) Some parameters for cellular responses can be calculated: GI=growth inhibition, TGI=total growth inhibition (cytostatic effect) and LC=cell killing (cytotoxic effect).

HT29 = test: SRB colorimetric cell growth inhibition assay, HT29; details: SRB, 48 hours exposure
Procedure: as §1, §2, §3, §4, §5, §6

IGROV = test: SRB colorimetric cell growth inhibition assay, IGROV; details: SRB, 48 hours exposure
Procedure: as §1, §2, §3, §4, §5, §6

HELA-APL = test: SRB colorimetric cell growth inhibition assay, HELA-APL; details: SRB, 48 hours exposure
Procedure: as §1, §2, §3, §4, §5, §6

K562 = test: SRB colorimetric cell growth inhibition assay, K562; details: K562 cells, SRB, 48 hours exposure
Procedure: as §1, §2, §3, §4, §5, §6

SK-BR3 = test: SRB colorimetric cell growth inhibition assay, SK-BR3; details: SRB, 48 hours exposure
Procedure: as §1, §2, §3, §4, §5, §6

PANC1 = test: SRB colorimetric cell growth inhibition assay, PANC1; details: SRB, 48 hours exposure
Procedure: as §1, §2, §3, §4, §5, §6

LOVO-DOX = test: SRB colorimetric cell growth inhibition assay, LOVO-DOX; details: SRB, 48 hours exposure
Procedure: as §1, §2, §3, §4, §5, §6

IGROV-ET = test: SRB colorimetric cell growth inhibition assay, IGROV-ET; details: SRB, 48 hours exposure
Procedure: as §1, §2, §3, §4, §5, §6

SK-MEL-28 = test: SRB colorimetric cell growth inhibition assay, SK-MEL-28; details: SRB, 48 hours exposure
Procedure: as §1, §2, §3, §4, §5, §6

LOVO = test: SRB colorimetric cell growth inhibition assay, LOVO; details: SRB, 48 hours exposure
Procedure: as §1, §2, §3, §4, §5, §6

A549 = test: SRB colorimetric cell growth inhibition assay, A549; details: SRB, 48 hours exposure
Procedure: as §1, §2, §3, §4, §5, §6

LN-caP = test: SRB colorimetric cell growth inhibition assay, LN-caP; details: SRB, 48 hours exposure
Procedure: as §1, §2, §3, §4, §5, §6

DU145 = test: SRB colorimetric cell growth inhibition assay, DU145; details: SRB, 48 hours exposure
Procedure: as §1, §2, §3, §4, §5, §6

## CC(C)C[C@@H]1NC(=O)[C@H](C(C)C)OC(=O)C[C@H](O)[C@@H](C(C)C)NC(=O)[C@@H](NC(=O)[C@@H](CC(C)C)N(C)C(=O)[C@@H]2CCCN2C(=O)[C@H](C)O)[C@@H](C)OC(=O)[C@H](Cc2ccccc2)N(C)C(=O)[C@@H]2CCCN2C1=O [Phe^5 tamandarin B, [N-MePhe^5]-Tamandarin B] (H-[Lac]P[dNMeL]T[Hexanoyl(3S-OH,4R-NH2,5-Me)][Hiv]LP[NMeF]; ester 4-C)
HELA; HELA cells, total growth inhibition
  TGI: 4.61E−09 Molar
HELA; HELA cervix carcinoma cells
  GI50: 1.17 nM
HELA; read-out: LC50, HELA cells, cell killing
  CC50: 55.5 nM
HT29; HT29 cells, total growth inhibition
  TGI: 7.89E−08 Molar
HT29; HT29 colon adenocarcinoma cells
  GI50: 4.77 nM
HT29; read-out: LC50, HT29 cells, cell killing
  CC50: 9880 nM
IGROV; IGROV cells, total growth inhibition
  TGI: 1.28E−08 Molar
IGROV; IGROV ovary adenocarcinoma cells
  GI50: 2.49 nM
IGROV; read-out: LC50, IGROV cells, cell killing
  CC50: 124 nM
HELA-APL; HELA-APL (aplidine resistant) cervix cells
  GI50: 44.5 nM
HELA-APL; HELA-APL cells, total growth inhibition
  TGI: 4.23E−07 Molar
HELA-APL; read-out: LC50, HELA-APL cells, cell killing
  CC50: 9880 nM
K562
  GI50: 23.2 nM
K562; total growth inhibition
  TGI: 9.88E−07 Molar
K562; read-out: LC50, cell killing
  CC50: 9880 nM
SK-BR3; SK-BR3 breast adenocarcinoma cells
  GI50: 0.658 nM
SK-BR3; SK-BR3 cells, total growth inhibition
  TGI: 4.49E−09 Molar
SK-BR3; read-out: LC50, SK-BR3 cells, cell killing
  CC50: 312 nM
PANC1; PANC1 cells, total growth inhibition
  TGI: 3.28E−08 Molar
PANC1; PANC1 pancreatic carcinoma cells
  GI50: 3.81 nM
PANC1; read-out: LC50, PANC1 cells, cell killing
  CC50: 9880 nM
LOVO-DOX; LOVO-DOX (MDR) colon adenocarcinoma cells
  GI50: 358 nM
LOVO-DOX; LOVO-DOX cells, total growth inhibition
  TGI: 1.97E−06 Molar
LOVO-DOX; read-out: LC50, LOVO-DOX cells, cell killing
  CC50: 9880 nM
IGROV-ET; IGROV-ET (ET-743 resistant) ovary cells
  GI50: 215 nM
IGROV-ET; IGROV-ET cells, total growth inhibition
  TGI: 7.88E−07 Molar
IGROV-ET; read-out: LC50, IGROV-ET cells, cell killing
  CC50: 6350 nM
SK-MEL-28; SK-MEL-28 (MEL-28) melanoma cells
  GI50: 2.74 nM
SK-MEL-28; SK-MEL-28 cells, total growth inhibition
  TGI: 1.88E−08 Molar
SK-MEL-28; read-out: LC50, SK-MEL-28 cells, cell killing
  CC50: 205 nM
LOVO; LOVO cells, total growth inhibition
  TGI: 8.81E−08 Molar
LOVO; LOVO colon adenocarcinoma cells
  GI50: 26.1 nM
LOVO; read-out: LC50, LOVO cells, cell killing
  CC50: 5220 nM
A549; A549 cells, total growth inhibition
  TGI: 3.90E−08 Molar
A549; A549 lung carcinoma cells
  GI50: 4.56 nM
A549; read-out: LC50, A549 cells, cell killing
  CC50: 935 nM
LN-caP; LN-caP cells, total growth inhibition
  TGI: 8.32E−09 Molar
LN-caP; LN-caP prostate adenocarcinoma cells
  GI50: 1.52 nM
LN-caP; read-out: LC50, LN-caP cells, cell killing
  CC50: 101 nM
DU145; DU145 cells, total growth inhibition
  TGI: 1.02E−08 Molar
DU145; DU145 prostate carcinoma cells
  GI50: 2.37 nM
DU145; read-out: LC50, DU145 cells, cell killing
  CC50: 268 nM
